Measurements: patent publication US9006250B2, “4-amino-6-(heterocyclic)picolinates and 6-amino-2-(heterocyclic)pyrimidine-4-carboxylates and their use as herbicides” (Dow AgroSciences, LLC, priority 2013, dated 2015)

Tests used:
[1] = tested on: ABUTH: velvetleaf (Abutilon theophrasti); assay: Post-Emergent Test II herbicidal activity; type: in vivo; details: post-emergence, 336 h, 14 days, read-out: Visual Growth Reduction (%) 14 Days After Application ABUTH; for pest or weed control at 35 g/ha: 35 g ai/ha; for pest or weed control at 70 g/ha: 70 g ai/ha; for pest or weed control at 140 g/ha: 140 g ai/ha
How it was run: (§1)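 Test plants grown in greenhouse to first or second true leaf stage (7-21 d, ~23-29° C day), then sprayed overhead at 187 L/ha with compound in acetone/DMSO-based aqueous spray containing crop oil concentrate and surfactant, at highest rate plus ½× to 1/16× serial dilutions. Injury scored visually after 14 d versus untreated plants (0 = none, 100 = complete kill).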

[2] = tested on: AMARE: redroot pigweed (Amaranthus retroflexus); assay: Post-Emergent Test II herbicidal activity; type: in vivo; details: post-emergence, 336 h, 14 days, read-out: Visual Growth Reduction (%) 14 Days After Application AMARE; for pest or weed control at 35 g/ha: 35 g ai/ha; for pest or weed control at 70 g/ha: 70 g ai/ha; for pest or weed control at 140 g/ha: 140 g ai/ha
How it was run: as §1

[3] = tested on: BRSNN: oilseed rape, canola (Brassica napus); assay: Post-Emergent Test II herbicidal activity; type: in vivo; details: post-emergence, 336 h, 14 days, read-out: Visual Growth Reduction (%) 14 Days After Application BRSNN; for pest or weed control at 35 g/ha: 35 g ai/ha; for pest or weed control at 70 g/ha: 70 g ai/ha; for pest or weed control at 140 g/ha: 140 g ai/ha
How it was run: as §1

[4] = tested on: CHEAL: lambsquarters (Chenopodium album); assay: Post-Emergent Test II herbicidal activity; type: in vivo; details: post-emergence, 336 h, 14 days, read-out: Visual Growth Reduction (%) 14 Days After Application CHEAL; for pest or weed control at 35 g/ha: 35 g ai/ha; for pest or weed control at 70 g/ha: 70 g ai/ha; for pest or weed control at 140 g/ha: 140 g ai/ha
How it was run: as §1

[5] = tested on: CYPES: yellow nutsedge (Cyperus esculentus); assay: Post-Emergent Test II herbicidal activity; type: in vivo; details: post-emergence, 336 h, 14 days, read-out: Visual Growth Reduction (%) 14 Days After Application CYPES; for pest or weed control at 35 g/ha: 35 g ai/ha; for pest or weed control at 70 g/ha: 70 g ai/ha; for pest or weed control at 140 g/ha: 140 g ai/ha
How it was run: as §1

[6] = tested on: ECHCG: barnyardgrass (Echinochloa crus-galli); assay: Post-Emergent Test II herbicidal activity; type: in vivo; details: post-emergence, 336 h, 14 days, read-out: Visual Growth Reduction (%) 14 Days After Application ECHCG; for pest or weed control at 35 g/ha: 35 g ai/ha; for pest or weed control at 70 g/ha: 70 g ai/ha; for pest or weed control at 140 g/ha: 140 g ai/ha
How it was run: as §1

[7] = tested on: EPHHL: wild poinsettia (Euphorbia heterophylla); assay: Post-Emergent Test II herbicidal activity; type: in vivo; details: post-emergence, 336 h, 14 days, read-out: Visual Growth Reduction (%) 14 Days After Application EPHHL; for pest or weed control at 35 g/ha: 35 g ai/ha; for pest or weed control at 70 g/ha: 70 g ai/ha; for pest or weed control at 140 g/ha: 140 g ai/ha
How it was run: as §1

[8] = tested on: HELAN: sunflower (Helianthus annuus); assay: Post-Emergent Test II herbicidal activity; type: in vivo; details: post-emergence, 336 h, 14 days, read-out: Visual Growth Reduction (%) 14 Days After Application HELAN; for pest or weed control at 35 g/ha: 35 g ai/ha; for pest or weed control at 70 g/ha: 70 g ai/ha; for pest or weed control at 140 g/ha: 140 g ai/ha
How it was run: as §1

[9] = tested on: ORYSA: rice (Oryza sativa); assay: Post-Emergent Test II herbicidal activity; type: in vivo; details: post-emergence, 336 h, 14 days, read-out: Visual Growth Reduction (%) 14 Days After Application ORYSA; for pest or weed control at 35 g/ha: 35 g ai/ha; for pest or weed control at 70 g/ha: 70 g ai/ha; for pest or weed control at 140 g/ha: 140 g ai/ha
How it was run: as §1

[10] = tested on: SETFA: giant foxtail (Setaria faberi); assay: Post-Emergent Test II herbicidal activity; type: in vivo; details: post-emergence, 336 h, 14 days, read-out: Visual Growth Reduction (%) 14 Days After Application SETFA; for pest or weed control at 35 g/ha: 35 g ai/ha; for pest or weed control at 70 g/ha: 70 g ai/ha; for pest or weed control at 140 g/ha: 140 g ai/ha
How it was run: as §1

[11] = tested on: TRZAS: wheat, spring (Triticum aestivum); assay: Post-Emergent Test II herbicidal activity; type: in vivo; details: post-emergence, 336 h, 14 days, read-out: Visual Growth Reduction (%) 14 Days After Application TRZAS; for pest or weed control at 35 g/ha: 35 g ai/ha; for pest or weed control at 70 g/ha: 70 g ai/ha; for pest or weed control at 140 g/ha: 140 g ai/ha
How it was run: as §1

[12] = tested on: ZEAMX: maize, corn (Zea mays); assay: Post-Emergent Test II herbicidal activity; type: in vivo; details: post-emergence, 336 h, 14 days, read-out: Visual Growth Reduction (%) 14 Days After Application ZEAMX; for pest or weed control at 35 g/ha: 35 g ai/ha; for pest or weed control at 70 g/ha: 70 g ai/ha; for pest or weed control at 140 g/ha: 140 g ai/ha
How it was run: as §1

SMILES | pest or weed control at 35 g/ha [1] | pest or weed control at 70 g/ha [1] | pest or weed control at 140 g/ha [1] | pest or weed control at 35 g/ha [2] | pest or weed control at 70 g/ha [2] | pest or weed control at 140 g/ha [2] | pest or weed control at 35 g/ha [3] | pest or weed control at 70 g/ha [3] | pest or weed control at 140 g/ha [3] | pest or weed control at 35 g/ha [4] | pest or weed control at 70 g/ha [4] | pest or weed control at 140 g/ha [4] | pest or weed control at 35 g/ha [5] | pest or weed control at 70 g/ha [5] | pest or weed control at 140 g/ha [5] | pest or weed control at 35 g/ha [6] | pest or weed control at 70 g/ha [6] | pest or weed control at 140 g/ha [6] | pest or weed control at 35 g/ha [7] | pest or weed control at 70 g/ha [7] | other results
COC(=O)c1nc(-c2ccc3nonc3c2C)cc(N)c1Cl [Compound 17] | 0 to 29% | 45 to 59% | 60 to 74% | 95 to 100% | 95 to 100% | 95 to 100% | 60 to 74% | 75 to 84% | 85 to 94% | 85 to 94% | 95 to 100% | 95 to 100% | 60 to 74% | 60 to 74% | 75 to 84% | 0 to 29% | 0 to 29% | 0 to 29% | 0 to 29% | 0 to 29% | pest or weed control at 140 g/ha [7]: 0 to 29%; pest or weed control at 35 g/ha [8]: 0 to 29%; pest or weed control at 70 g/ha [8]: 45 to 59%; pest or weed control at 140 g/ha [8]: 60 to 74%; pest or weed control at 35 g/ha [9]: 0 to 29%; pest or weed control at 70 g/ha [9]: 0 to 29%; pest or weed control at 140 g/ha [9]: 0 to 29%; pest or weed control at 35 g/ha [10]: 0 to 29%; pest or weed control at 70 g/ha [10]: 0 to 29%; pest or weed control at 140 g/ha [10]: 0 to 29%; pest or weed control at 35 g/ha [11]: 0 to 29%; pest or weed control at 70 g/ha [11]: 0 to 29%; pest or weed control at 140 g/ha [11]: 30 to 44%; pest or weed control at 35 g/ha [12]: 0 to 29%; pest or weed control at 70 g/ha [12]: 0 to 29%; pest or weed control at 140 g/ha [12]: 0 to 29%; melting point: 182 to 185 °C
COC(=O)c1nc(-c2ccc3nsnc3c2)c(F)c(N)c1Cl [Compound 11] | 85 to 94% | 95 to 100% | 95 to 100% | 95 to 100% | 95 to 100% | 95 to 100% | 60 to 74% | 75 to 84% | 75 to 84% | 85 to 94% | 95 to 100% | 95 to 100% | 95 to 100% | 95 to 100% | 95 to 100% | 85 to 94% | 95 to 100% | 95 to 100% | 95 to 100% | 95 to 100% | pest or weed control at 140 g/ha [7]: 95 to 100%; pest or weed control at 35 g/ha [8]: 85 to 94%; pest or weed control at 70 g/ha [8]: 85 to 94%; pest or weed control at 140 g/ha [8]: 95 to 100%; pest or weed control at 35 g/ha [9]: 0 to 29%; pest or weed control at 70 g/ha [9]: 0 to 29%; pest or weed control at 140 g/ha [9]: 0 to 29%; pest or weed control at 35 g/ha [10]: 45 to 59%; pest or weed control at 70 g/ha [10]: 85 to 94%; pest or weed control at 140 g/ha [10]: 85 to 94%; pest or weed control at 35 g/ha [11]: 0 to 29%; pest or weed control at 70 g/ha [11]: 0 to 29%; pest or weed control at 140 g/ha [11]: 0 to 29%; pest or weed control at 35 g/ha [12]: 60 to 74%; pest or weed control at 70 g/ha [12]: 60 to 74%; pest or weed control at 140 g/ha [12]: 75 to 84%; melting point: 196 to 198 °C
